Consider two compounds from patent US20110124607A1, “COMPOSITION FOR REGULATION CELLULAR SENESCENCE COMPRISING LYSOPHOSPHATIDIC ACID AND INHIBITOR OF ADENYLYL CYCLASE AS ACTIVE INGREDIENTS” (priority 2008, published 2011).

Holding throughout (format): cell-based, human
The test system of one experiment is p-Thr172-AMPKα. Description: Immuno-blotting of p-Thr172-AMPKα. The note with it: for p-Thr172-AMPKα expression after suppressing PKA: senescent cells pre-treated with 10 mM PKA inhibitor Rp-cAMP for one hour; for Thr172-AMPKα phosphorylation: 30 μM LPA, 300 μM ACI, 10 mM AMPKI, 10 mM AICAR, up to day 4. The method, then:
(§1) (A) and (B): Young and senescent cells were serum-starved for 2 days, followed by treatment with 10 mM of AMPK inhibitor […]) or 10 mM of AMPK activator AICAR(B) for 4 days. Proteins were extracted from the treated cells and the levels of AMPKα and p-Thr172-AMPKα, total p53, p-Ser15-p53 and […] measured by immuno-blotting. (C) and (D): Young cells (C) and senescent cells (D) were treated with 10 mM AMPKI or 10 mM AICAR and cultured for 4 days, followed by measurement of cell proliferation by cell counting. At this time, the experiment was repeated three times (p<0.001). (A) and (B) are photographs illustrating the results of immuno-blotting. Precisely, sub-cultured young cells (PD 18: A) and senescent cells (PD 64: B) were treated with 30 μM of LPA […] and ACI singly or together, followed by further culture for 1, 2, and 4 days. Proteins were extracted from the cultured cells and the levels of AMPKα, […] β-actin were quantified by immuno-blotting. (A) and (B) are photographs illustrating the results of immuno-blotting. Precisely, senescent cells (PD 64) were pre-treated with 10 mM of PKA inhibitor Rp-cAMP for one hour, followed by treatment with LPA(A) or ACI(B). After culturing the cells for 1, 2, and 4 days, proteins were extracted from the cultured cells and the levels of AMPKα, […] β-actin were quantified by immuno-blotting using 45 μg of the protein. To analyse protein expression, human fibroblasts were lysed in cold lysis buffer (25 mM Hepes, pH 8.0, 150 mM NaCl, 1 mM EDTA, 1 mM Na3VO4, 1 mM NaF, 1% Triton X-100 and protease inhibitors), followed by centrifugation at 4° C. at 9,000 rpm for 10 minutes to obtain supernatant. Protein in the extract was quantified […]. SDS-PAGE electrophoresis was performed with equal amount of the protein (45 μg) to separate. The separated protein was transferred onto NC membrane from the electrophoresis gel. Non-specific protein binding was blocked by blocking the blot (transferred NC membrane) using TTBS […] containing 5% skim milk for one hour. Then, antigen-antibody reaction was induced with diluted primary antibody at 4° C. for overnight. The blot was washed with TTBS, followed by reaction with horseradish peroxidase conjugated anti-IgGs diluted in TTBS containing 5% skim milk (1:5000) at room temperature for one hour. The blot was washed again with TTBS to eliminate non-specific binding of antigen-antibody. Photographs were developed/printed on X-ray film (Kodak) using ECL kit (Pierce) containing peroxidase substrate to identify each protein.

For another experiment, the system named is p-Ser485/491-AMPKα. Description: Immuno-blotting of p-Ser485/491-AMPKα. The note with it: for p-Ser485/491-AMPKα expression after suppressing PKA: senescent cells pre-treated with 10 mM PKA inhibitor Rp-cAMP for one hour; for Ser485/491-AMPKα phosphorylation: 30 μM LPA, 300 μM ACI, up to day 4. Here is the method:
(A) and (B) are photographs illustrating the results of immuno-blotting. Precisely, sub-cultured young cells (PD 18: A) and senescent cells (PD 64: B) were treated with 30 μM of LPA […] and ACI singly or together, followed by further culture for 1, 2, and 4 days. Proteins were extracted from the cultured cells and the levels of AMPKα, p-Thr172-AMPKα, p-Ser485/491-AMPKα, p53, p-Ser15-p53, p21waf1/cip1 and β-actin were quantified by immuno-blotting.
(A) and (B) are photographs illustrating the results of immuno-blotting. Precisely, senescent cells (PD 64) were pre-treated with 10 mM of PKA inhibitor Rp-cAMP for one hour, followed by treatment with LPA(A) or ACI(B). After culturing the cells for 1, 2, and 4 days, proteins were extracted from the cultured cells and the levels of AMPKα, p-Thr172-AMPKα, p-Ser485/491-AMPKα, p53, p-Ser15-p53, p21waf1/cip1 and β-actin were quantified by immuno-blotting using 45 μg of the protein.
(§2) To analyse protein expression, human fibroblasts were lysed in cold lysis buffer (25 mM Hepes, pH 8.0, 150 mM NaCl, 1 mM EDTA, 1 mM Na3VO4, 1 mM NaF, 1% Triton X-100 and protease inhibitors), followed by centrifugation at 4° C. at 9,000 rpm for 10 minutes to obtain supernatant. Protein in the extract was quantified […]. SDS-PAGE electrophoresis was performed with equal amount of the protein (45 μg) to separate. The separated protein was transferred onto NC membrane from the electrophoresis gel. Non-specific protein binding was blocked by blocking the blot (transferred NC membrane) using TTBS […] containing 5% skim milk for one hour. Then, antigen-antibody reaction was induced with diluted primary antibody at 4° C. for overnight. The blot was washed with TTBS, followed by reaction with horseradish peroxidase conjugated anti-IgGs diluted in TTBS containing 5% skim milk (1:5000) at room temperature for one hour. The blot was washed again with TTBS to eliminate non-specific binding of antigen-antibody. Photographs were developed/printed on X-ray film (Kodak) using ECL kit (Pierce) containing peroxidase substrate to identify each protein.

Another experiment concerns p-Ser15-p53. Description: Immuno-blotting of p-Ser15-p53. The note with it: for p-Ser15-p53 expression after suppressing PKA: senescent cells pre-treated with 10 mM PKA inhibitor Rp-cAMP for one hour; for p-Ser15-p53 expression: senescent cells, 30 μM LPA, 300 μM ACI, 10 mM AMPKI, 10 mM AICAR. The method, then: as §1
The test system of the next experiment is p-Ser431-LKB1. The experiment is described as follows: Immuno-blotting of p-Ser431-LKB1. The note with it: 30 μM LPA, 300 μM ACI, 1, 2, 4 days. The method, then:
(§3) FIG. 8 is a set of photographs illustrating the effects of LPA and ACI on LKB1 phosphorylation in senescent cells. Precisely, sub-cultured young cells (PD 18) and senescent cells (PD64) were treated with 30 μM of LPA or 300 μM of LPA and ACI singly or together. After culturing the cells for 1, 2, and 4 days, proteins were extracted from the cultured cells and the levels of LKB1, p-Ser431-LKB1 and β-actin were quantified by immuno-blotting using 45 μg of the protein.
as §2
It has been recently discovered that the tumor suppressor gene LKB1 is a member of AMPKK family (Hawley et al., 2003; Shaw et al., 2004; Woods et al., 2003a). Ser431-LKB1 phosphorylation promotes cell growth in the activated form of LKB1 (Sapkota et al., 2001). So, in this experiment, it was examined what effect the single treatment or co-treatment of LPA and ACI has on the expressions of p-Ser431-LKB1, LKB1 and β-actin (FIG. 8). […] Meanwhile, LKB1 expression therein was not changed.

In another experiment the test system is LKB1. The experiment is described as follows: Immuno-blotting of LKB1. The conditions noted are these: 1, 2, 4 days. Here is the method:
as §3
as §2, with “The blot was washed with TTBS, followed by reaction with horseradish peroxidase conjugated anti-IgGs diluted in TTBS containing 5% skim milk (1:5000) at room temperature for one hour. The blot was washed again with TTBS to eliminate non-specific binding of antigen-antibody. Photographs were developed/printed on X-ray film (Kodak) using ECL kit (Pierce) containing peroxidase substrate to identify each protein.” left out

Turning to lysophosphatidic acid [LPA], in the experiment on p-Thr172-AMPKα, the “p-Thr172-AMPKα expression after suppressing PKA” value is given as “not changed at all”. For the same compound, the Thr172-AMPKα phosphorylation entry with p-Thr172-AMPKα (senescent cells) and with p-Thr172-AMPKα (young cells) was “reduced” throughout. Further, in the experiment on p-Ser485/491-AMPKα, the “p-Ser485/491-AMPKα expression after suppressing PKA” value was “not changed at all”. Besides, the Ser485/491-AMPKα phosphorylation result with p-Ser485/491-AMPKα (senescent cells) is listed as “gradually increased”; in the experiment with p-Ser485/491-AMPKα (young cells), “reduced”. In addition, the “p-Ser15-p53 expression after suppressing PKA” value with p-Ser15-p53 is recorded as “not changed at all”. For the same compound, the p-Ser15-p53 expression entry in the experiment on p-Ser15-p53 was “reduced”. Moreover, the Ser431-LKB1 phosphorylation entry is on record as “gradually increased” in the experiment on p-Ser431-LKB1 (senescent cells) and “gradually reduced” with p-Ser431-LKB1 (young cells). Further, the LKB1 expression entry in the experiment on LKB1 (young cells, 30 μM LPA) is on record as “not changed”.

Take `Nc1ncnc2c1ncn2C1CCCO1` (stereo not shown) [ACI, 9-(tetrahydro-2′-furyl)adenine]: the “p-Thr172-AMPKα expression after suppressing PKA” value in the experiment on p-Thr172-AMPKα is reported as “not changed”. Also, the Thr172-AMPKα phosphorylation result in the experiment on p-Thr172-AMPKα (senescent cells) is reported as “reduced”; with p-Thr172-AMPKα (young cells), “began to increase”. In addition, in the experiment with p-Ser485/491-AMPKα, the “p-Ser485/491-AMPKα expression after suppressing PKA” value is recorded as “not changed”. Further, the Ser485/491-AMPKα phosphorylation entry with p-Ser485/491-AMPKα (senescent cells) is “did not affect”; in the experiment with p-Ser485/491-AMPKα (young cells) it was “reduced”. Moreover, the “p-Ser15-p53 expression after suppressing PKA” value with p-Ser15-p53 is recorded as “not changed”. Also, the p-Ser15-p53 expression entry with p-Ser15-p53 is “reduced”. Besides, the Ser431-LKB1 phosphorylation result was “reduced” in the experiment on p-Ser431-LKB1 (senescent cells) and “increased” with p-Ser431-LKB1 (young cells). The LKB1 expression entry in the experiment on LKB1 (senescent cells, 300 μM ACI) was “reduced”.
